These results are taken from paper PMC11005446 (European journal of pharmaceutical sciences : official …, 2021).

Broadly, the Km is the substrate concentration at which the rate is half of its maximum.

Where two headings read alike, the source gives them in different places. Some results are limits rather than exact numbers.

For data set [1], the target named is T1, OATP1B3 (Homo sapiens, UniProt Q9NPD5).
T1 sequence (Q9NPD5 1-702): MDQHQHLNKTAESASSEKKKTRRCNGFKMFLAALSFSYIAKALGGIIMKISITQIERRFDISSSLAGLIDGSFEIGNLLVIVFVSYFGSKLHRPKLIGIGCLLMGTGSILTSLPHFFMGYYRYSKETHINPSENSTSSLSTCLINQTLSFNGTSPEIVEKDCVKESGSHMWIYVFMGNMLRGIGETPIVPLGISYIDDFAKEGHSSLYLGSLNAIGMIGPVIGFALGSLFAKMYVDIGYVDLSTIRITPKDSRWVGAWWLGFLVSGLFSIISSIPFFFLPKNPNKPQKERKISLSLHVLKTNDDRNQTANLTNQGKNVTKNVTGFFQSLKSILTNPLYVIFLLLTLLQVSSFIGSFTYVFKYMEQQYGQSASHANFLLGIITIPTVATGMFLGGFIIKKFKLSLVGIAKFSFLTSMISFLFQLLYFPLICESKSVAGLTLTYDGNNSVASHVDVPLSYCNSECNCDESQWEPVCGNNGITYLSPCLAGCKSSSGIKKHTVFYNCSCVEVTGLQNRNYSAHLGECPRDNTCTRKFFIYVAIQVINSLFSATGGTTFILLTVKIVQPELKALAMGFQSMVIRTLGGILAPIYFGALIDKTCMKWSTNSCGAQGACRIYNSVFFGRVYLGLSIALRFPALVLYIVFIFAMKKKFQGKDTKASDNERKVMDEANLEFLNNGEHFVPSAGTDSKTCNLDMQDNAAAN
The data set can be described thus: Inhibition of [3H]CCK-8 accumulation in human SCH. Type of data set: in vitro ADME. The following applies: mean ± SE.

For data set [2], the system named is OATP1B1 and OATP1B3. The data set can be described thus: Inhibition of [3H]pitavastatin accumulation in human SCH. Type of data set: in vitro ADME. The following applies: for Co-Incubation R / Pre+Co-Incubation R: Hepatocytes, substrate pitavastatin, R-value model; for accumulation of [3H]pitavastatin after inhibitor pre-incubation: human SCH, washing.
Data set [3] has as its system OATP1B1 and OATP1B3. The following applies: for Co-Incubation R / Pre+Co-Incubation R: Hepatocytes, substrate rosuvastatin, R-value model; for accumulation of [3H]rosuvastatin after inhibitor pre-incubation: washing.
Data set [4] relates to OATP1B1 and OATP1B3. The following applies: both cell lines and human SCH; vs US FDA cut-off 1.1.
Data set [5] deals with T1, OATP1B3. The conditions noted are these: OATP1B3-expressing cell line, substrate E217βG; ref Pahwa et al., 2017; cited from earlier work.
The test system of data set [6] is OATP1B1. The conditions noted are these: OATP1B1-expressing cell line, substrate E217βG; ref Pahwa et al., 2017; cited from earlier work.
In data set [7] the test system is OATP1B1 and OATP1B3. The conditions noted are these: transporter-expressing cell lines; ref Farasyn et al., 2019; cited from earlier work.
Data set [8] can be described thus: Estimated maximum total plasma concentration at the inlet to the liver. The conditions noted are these: calculated by Eq. 3 from literature parameters (Supplement Table S2).
For data set [9], the system named is OATP1B1. The following applies: OATP1B1-expressing cell line, substrate rosuvastatin; ref Farasyn et al., 2019; cited from earlier work.
Data set [10] concerns cynomolgus monkey hepatocytes. The conditions noted are these: ref Ufuk et al., 2018; cited from earlier work.
For data set [11], the system named is OATP1B1. The following applies: read-out: Michaelis constant (Km) for OATP1B1, cited from earlier work.
Data set [12] concerns OATP1B3. The following applies: cited from earlier work.
The next data set relates to human hepatocytes. The following applies: suspension of human hepatocytes, with vs without rifampicin; ref Bi et al., 2013; cited from earlier work.
Data set [13] relates to OATP1B1, NTCP, and OATP1B3. The following applies: ref Ho et al., 2006; Kitamura et al., 2008; cited from earlier work.
Where [14] appears, read: human hepatocytes, inhibitor 100 μM co-incubation, mean ± SE.

As to `O=C1OC(c2ccc(O)c(S(=O)(=O)O)c2)(c2ccc(O)c(S(=O)(=O)O)c2)c2c(Br)c(Br)c(Br)c(Br)c21` [BSP, bromosulfophthalein], the “accumulation of [3H]CCK-8, co-incubation” value on OATP1B3 [1] (human hepatocytes, inhibitor 100 μM co-incubation) was 0.10 ± 0.01 fold of control. Moreover, the “accumulation of [3H]pitavastatin, co-incubation” value in the data set with OATP1B1 and OATP1B3 [2] (setting [14]) is recorded as 0.44 ± 0.05 fold of control. In addition, in the data set with OATP1B1 and OATP1B3 [3] (setting [14]), the “accumulation of [3H]rosuvastatin, co-incubation” value is given as 0.20 ± 0.09 fold of control. In addition, the “inhibition of rosuvastatin uptake, co-incubation” value in the data set with OATP1B1 and OATP1B3 [3] (human hepatocytes, inhibitor 100 μM co-incubation, range 77–92%) was ~ 84%.

In the case of `Cc1nc(Nc2ncc(C(=O)Nc3c(C)cccc3Cl)s2)cc(N2CCN(CCO)CC2)n1` [Dasatinib, dasatinib], in the data set on OATP1B1 and OATP1B3 [4], the “R-values under pre+co-incubation conditions” value is reported as above 1.1. Also, the “Co-Incubation R” value is on record as 1.05 (1.05–1.09) on OATP1B3 [5]; 1.09 (1.05–1.14) in the data set on OATP1B1 and OATP1B3 [3]; 1.07 (1.04–1.09) with OATP1B1 [6]. Further, the “Pre+Co-Incubation R” value at OATP1B3 [5] is 1.11 (1.09–1.22); in the data set on OATP1B1 and OATP1B3 [3], 1.27 (1.15–1.51); in the data set on OATP1B1 [6], 1.13 (1.09–1.20).

Turning to `CO[C@H]1C[C@@H]2CC[C@@H](C)[C@@](O)(O2)C(=O)C(=O)N2CCCC[C@H]2C(=O)O[C@H]([C@H](C)C[C@@H]2CC[C@@H](OCCO)[C@H](OC)C2)CC(=O)[C@H](C)/C=C(\C)[C@@H](O)[C@@H](OC)C(=O)[C@H](C)C[C@H](C)/C=C/C=C/C=C/1C` [EVR, everolimus], in the data set with OATP1B1 and OATP1B3 [7], the “R values from cell lines, pre+co-incubation” value is recorded as 1.23. For the same compound, the “maximum total plasma concentration at the inlet to the liver (Iin,max,plasma)” value in [8] is 0.17 µM. Besides, in the data set with OATP1B1 and OATP1B3 [2], the “Co-Incubation R” value is 1.01 (1.01–1.02). Further, the “Pre+Co-Incubation R” value is reported as 1.09 (1.08–1.13) in the data set on OATP1B1 and OATP1B3 [2]; 1.07 (1.05–1.11) with OATP1B1 and OATP1B3 [3]. For the same compound, the “accumulation of [3H]pitavastatin after inhibitor pre-incubation” value in the data set with OATP1B1 and OATP1B3 [2] (1 h pre-incubation at 0.5 μM, model estimate ± SE) is 0.78±0.06 fold vs. CTL. The “accumulation of [3H]rosuvastatin after inhibitor pre-incubation” value is 0.8 ± 0.07 fold of CTL in the data set with OATP1B1 and OATP1B3 [3] (human SCH, 1 h pre-incubation at 0.2 μM, model estimate ± SE); 0.59 ± 0.07 fold of CTL with OATP1B1 and OATP1B3 [3] (human SCH, 1 h pre-incubation at 0.8 μM, model estimate ± SE).

As to `CO[C@H]1C[C@@H]2CC[C@@H](C)[C@@](O)(O2)C(=O)C(=O)N2CCCC[C@H]2C(=O)O[C@H]([C@H](C)C[C@@H]2CC[C@@H](O)[C@H](OC)C2)CC(=O)[C@H](C)/C=C(\C)[C@@H](O)[C@@H](OC)C(=O)[C@H](C)C[C@H](C)/C=C/C=C/C=C/1C` [SIR, sirolimus], the “R-values under pre+co-incubation conditions” value with OATP1B1 and OATP1B3 [4] is below 1.1. The “maximum total plasma concentration at the inlet to the liver (Iin,max,plasma)” value in data set [8] was 0.03 µM. For the same compound, the “Co-Incubation R” value with OATP1B1 [9] is given as 1.00 (1.00–1.03); in the data set with OATP1B1 and OATP1B3 [2] it was 1.00 (1.00–1.01); with OATP1B1 and OATP1B3 [3], 1.00 (1.00–1.00). The “Pre+Co-Incubation R” value with OATP1B1 and OATP1B3 [2] is given as 1.00 (1.00–1.01); in the data set with OATP1B1 and OATP1B3 [3], 1.00 (1.00–1.00). Also, the “accumulation of [3H]pitavastatin after inhibitor pre-incubation” value in the data set on OATP1B1 and OATP1B3 [2] (1 h pre-incubation at 0.6 μM) is on record as “did not affect”. Moreover, in the data set on OATP1B1 and OATP1B3 [3] (human SCH, 1 h pre-incubation at 0.6 μM), the “accumulation of [3H]rosuvastatin after inhibitor pre-incubation” value came to 0.63 ± 0.08 fold vs. CTL.

For the compound `O=C(O)C[C@H](O)C[C@H](O)/C=C/c1c(C2CC2)nc2ccccc2c1-c1ccc(F)cc1` [pitavastatin], in data set [10], the “uptake clearance attributed to passive diffusion” value is on record as 20%. For the same compound, the Km with OATP1B1 [11] (ref Hirano et al., 2004) is 3 µM; in the data set with OATP1B3 [12] (read-out: Michaelis constant (Km) for OATP1B3, ref Hirano et al., 2004), 3 µM.

Regarding `CO[C@H]1/C=C/O[C@@]2(C)Oc3c(C)c(O)c4c(O)c(c(/C=N/N5CCN(C)CC5)c(O)c4c3C2=O)NC(=O)/C(C)=C\C=C\[C@H](C)[C@H](O)[C@@H](C)[C@@H](O)[C@@H](C)[C@H](OC(C)=O)[C@@H]1C` [rifampicin], at OATP1B3 [1] (human SCH, inhibitor 50 μM, 1 h pre-incubation then co-incubation), the “accumulation of [3H]CCK-8, pre+co-incubation” value is 0.18 ±0.12 fold of control. In the data set on OATP1B1 and OATP1B3 [3] (human SCH, inhibitor 50 μM, 1 h pre-incubation then co-incubation, mean ± SE), the “accumulation of [3H]rosuvastatin, pre+co-incubation” value is recorded as 0.45 ± 0.15 fold of control.

In the case of `CC(C)c1nc(N(C)S(C)(=O)=O)nc(-c2ccc(F)cc2)c1/C=C/[C@@H](O)C[C@@H](O)CC(=O)O` [rosuvastatin], the “uptake clearance attributed to passive diffusion” value in data set [10] is recorded as 4%. Further, in the data set on OATP1B1 [11] (ref Kitamura et al., 2008), the Km is 0.8 µM. Moreover, in the data set with human hepatocytes, the “share of total hepatic uptake clearance due to active transport processes” value is given as “approximately 90%”. Besides, in [13], the “contribution of NTCP to active uptake into human hepatocytes” value is listed as around 35%, the “contribution of OATP1B1 to active uptake into human hepatocytes” value is reported as ~ 50% and the “contribution of OATP1B3 to active uptake into human hepatocytes” value is around 15%. For the same compound, the Km with OATP1B3 [12] (read-out: Michaelis constant (Km) for OATP1B3, ref Kitamura et al., 2008) is 14.2 µM.

Consider cholecystokinin 8 [CCK-8], for which the Km in the data set on OATP1B3 [12] was 3.8 µM.
